The values below are quoted from earlier work in patent US20120040397A1, “Photo-Crosslinked Nucleic Acid Hydrogels” (priority 2008, published 2012).

For data set [1] the following is noted: in vivo.
Another data set concerns the target T1, PPAR-gamma (Homo sapiens, UniProt P37231).
T1 sequence (P37231 1-505): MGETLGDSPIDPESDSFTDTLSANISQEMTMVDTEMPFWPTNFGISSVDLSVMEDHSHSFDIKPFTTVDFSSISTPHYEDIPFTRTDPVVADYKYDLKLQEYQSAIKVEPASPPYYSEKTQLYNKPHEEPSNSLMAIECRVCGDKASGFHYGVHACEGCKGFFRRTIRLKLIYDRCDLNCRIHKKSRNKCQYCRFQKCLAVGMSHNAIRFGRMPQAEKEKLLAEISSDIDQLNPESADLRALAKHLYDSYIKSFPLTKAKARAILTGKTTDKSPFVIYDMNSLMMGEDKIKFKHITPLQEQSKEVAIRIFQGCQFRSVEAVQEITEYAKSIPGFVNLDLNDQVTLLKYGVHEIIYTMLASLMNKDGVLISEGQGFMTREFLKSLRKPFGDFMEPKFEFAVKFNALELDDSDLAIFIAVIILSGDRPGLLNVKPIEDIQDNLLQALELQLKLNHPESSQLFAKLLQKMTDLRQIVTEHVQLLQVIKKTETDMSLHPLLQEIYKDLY
Particulars: context-specific, depends on cell type.

Regarding `O=C1NC(=O)C(Cc2ccc3cc(OCc4ccccc4F)ccc3c2)S1` (stereo not drawn) [netoglitazone, 5-[{6-(2-fluorobenzyl)oxy-2-naphthyl}methyl]-2,4-thiazolidinedione], in data set [1], the “efficacy in lowering plasma glucose, insulin, and triglyceride levels versus pioglitazone and troglitazone” value is listed as “more efficacious”; the “potency relative to rosiglitazone” value is “about three-fold”. In addition, the PPAR-gamma modulation result at PPAR-gamma is “full agonist of PPAR-gamma and as a partial agonist or antagonist in others”.
